In US20160074421A1 (priority 2014, published 2016):

What was measured:
[1] = molecular target: PTEN (Homo sapiens, UniProt P60484); type: biochemical
[2] = system: tight junction; parameters: species or system BALB/c mice; conditions: mouse, in vivo, iv
[3] = system: epithelial and endothelial tissues; conditions: in vivo

Chain of PTEN (P60484 whole entry): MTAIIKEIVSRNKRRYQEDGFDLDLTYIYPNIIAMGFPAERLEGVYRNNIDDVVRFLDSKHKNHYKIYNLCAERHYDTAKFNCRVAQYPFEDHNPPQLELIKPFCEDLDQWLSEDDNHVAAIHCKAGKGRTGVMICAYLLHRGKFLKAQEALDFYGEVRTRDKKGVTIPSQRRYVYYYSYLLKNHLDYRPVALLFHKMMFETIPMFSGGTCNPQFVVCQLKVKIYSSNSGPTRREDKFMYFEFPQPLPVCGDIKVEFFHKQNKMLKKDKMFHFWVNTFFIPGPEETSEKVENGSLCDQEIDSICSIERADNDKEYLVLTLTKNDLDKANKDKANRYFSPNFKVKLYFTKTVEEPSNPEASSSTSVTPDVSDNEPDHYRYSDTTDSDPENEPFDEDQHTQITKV

## zinc ions
[1]
  activity of PTEN: inhibit the activity of PTEN

## 1-D-Myo-inositol 1,2,6-triphosphate [alpha trinositol]
[2]
  effect on tight junction disturbance: have a counterbalancing effect

## sodium salt of D-myo-inositol-1,2,6-trisphosphate
[3]
  progressive deterioration of the structure and function of anatomical structures in epithelial and endothelial tissues: prevented this deterioration
[3]; iv
  confirmation of the prevention of tissue deterioration: confirmed
